According to US20230407243A1, “GENETIC PLATFORM TO INVESTIGATE THE FUNCTIONS OF BACTERIAL DRUG EFFLUX PUMPS” (priority 2022, published 2023):

Columns and labels:
Assay in all cases: MIC susceptibility profiling, efflux platform
Assay type in all cases: cell-based, Escherichia coli
EKO-35 araC::emrAB = conditions: for Fold change of MICs: EKO-35 araC::emrAB compared to EKO-35; for Minimum Inhibitory Concentration, EKO-35 araC::emrAB / MIC: Table 13B, non-porinated, technical duplicate; for MIC: Escherichia coli, read-out: Minimum Inhibitory Concentration, EKO-35 araC::emrAB
How it was run: (§1)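 Broth MIC in cation-adjusted Mueller-Hinton (MHB II) following twofold compound titration in duplicate. Bacteria were prepared at OD600 ~1.0 in PBS and diluted 1/2000. Endpoint OD600 after 18 h at 37 °C was corrected using the pre-incubation reading.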

EKO-35 araC::acrB = conditions: for Fold change of MICs: EKO-35 araC::acrB compared to EKO-35; for Minimum Inhibitory Concentration, EKO-35 araC::acrB / MIC: Table 13A, non-porinated, technical duplicate; for MIC: Escherichia coli, read-out: Minimum Inhibitory Concentration, EKO-35 araC::acrB
How it was run: as §1

[1] = tested on: EKO-35 araC::mexCD (MexCD from P. aeruginosa); conditions: for Fold change of MICs: EKO-35 araC::mexCD compared to EKO-35; for Minimum Inhibitory Concentration, EKO-35 araC::mexCD / MIC: Table 13B, non-porinated, technical duplicate; for MIC: read-out: Minimum Inhibitory Concentration, EKO-35 araC::mexCD
How it was run: as §1

EKO-35 araC::acrD = conditions: for Fold change of MICs: EKO-35 araC::acrD compared to EKO-35; for Minimum Inhibitory Concentration, EKO-35 araC::acrD / MIC: Table 13A, non-porinated, technical duplicate; for MIC: Escherichia coli, read-out: Minimum Inhibitory Concentration, EKO-35 araC::acrD
How it was run: as §1

EKO-35 araC::mdtEF = conditions: for Fold change of MICs: EKO-35 araC::mdtEF compared to EKO-35; for Minimum Inhibitory Concentration, EKO-35 araC::mdtEF / MIC: Table 13A, non-porinated, technical duplicate; for MIC: Escherichia coli, read-out: Minimum Inhibitory Concentration, EKO-35 araC::mdtEF
How it was run: as §1

EKO-35 araC::emrKY = conditions: for Fold change of MICs: EKO-35 araC::emrKY compared to EKO-35; for Minimum Inhibitory Concentration, EKO-35 araC::emrKY / MIC: Table 13B, non-porinated, technical duplicate; for MIC: Escherichia coli, read-out: Minimum Inhibitory Concentration, EKO-35 araC::emrKY
How it was run: as §1

EKO-35 araC::macAB = conditions: for Fold change of MICs: EKO-35 araC::macAB compared to EKO-35; for Minimum Inhibitory Concentration, EKO-35 araC::macAB / MIC: Table 13B, non-porinated, technical duplicate; for MIC: Escherichia coli, read-out: Minimum Inhibitory Concentration, EKO-35 araC::macAB
How it was run: as §1

| Compound | Fold change of MICs (EKO-35 araC::emrAB) [fold] | Minimum Inhibitory Concentration, EKO-35 araC::emrAB (EKO-35 araC::emrAB) [µg/mL] | Fold change of MICs (EKO-35 araC::acrB) [fold] | Minimum Inhibitory Concentration, EKO-35 araC::acrB (EKO-35 araC::acrB) [µg/mL] | Fold change of MICs [1] [fold] | Minimum Inhibitory Concentration, EKO-35 araC::mexCD [1] [µg/mL] | Fold change of MICs (EKO-35 araC::acrD) [fold] | Minimum Inhibitory Concentration, EKO-35 araC::acrD (EKO-35 araC::acrD) [µg/mL] | Fold change of MICs (EKO-35 araC::mdtEF) [fold] | Minimum Inhibitory Concentration, EKO-35 araC::mdtEF (EKO-35 araC::mdtEF) [µg/mL] | Fold change of MICs (EKO-35 araC::emrKY) [fold] | Minimum Inhibitory Concentration, EKO-35 araC::emrKY (EKO-35 araC::emrKY) [µg/mL] | Fold change of MICs (EKO-35 araC::macAB) [fold] | Minimum Inhibitory Concentration, EKO-35 araC::macAB (EKO-35 araC::macAB) [µg/mL] | MIC (EKO-35 araC::emrAB) [µg/mL] | MIC [1] [µg/mL] | MIC (EKO-35 araC::acrD) [µg/mL] | MIC (EKO-35 araC::mdtEF) [µg/mL] | MIC (EKO-35 araC::emrKY) [µg/mL] | MIC (EKO-35 araC::macAB) [µg/mL] | also measured |
| --- | --- | --- | --- | --- | --- | --- | --- | --- | --- | --- | --- | --- | --- | --- | --- | --- | --- | --- | --- | --- | --- |
| C[C@H](CCC(=O)NCCS(=O)(=O)[O-])[C@H]1CC[C@H]2[C@@H]3CC[C@@H]4C[C@H](O)CC[C@]4(C)[C@H]3C[C@H](O)[C@]12C.[Na+] [sodium taurodeoxycholate] | 2 | 1000 | 2 | 1000 | 2 | 1000 | 2 | 1000 | 2 | 1000 | 1 | 500 | 1 | 250 | – | – | – | – | – | – | – |
| Nc1ccc(S(=O)(=O)Nc2nccs2)cc1 [Sulfathiazole] | 1 | – | 1 | – | 1 | – | 1 | – | 1 | – | 1 | – | 1 | – | 10 | 10 | 10 | 10 | 10 | – | MIC (EKO-35 araC::acrB): 10 µg/mL |
| NC[C@H]1O[C@H](O[C@H]2[C@H](O)[C@@H](O[C@H]3O[C@H](CO)[C@@H](O)[C@H](N)[C@H]3O)[C@H](N)C[C@@H]2N)[C@H](O)[C@@H](O)[C@@H]1O [kanamycin] | 1 | – | 1 | – | 1 | – | 1 | – | 1 | – | 1 | – | 1 | – | – | 1.56 | – | – | 1.56 | – | – |
| CN(C)[C@@H]1C(O)=C(C(N)=O)C(=O)[C@@]2(O)C(O)=C3C(=O)c4c(O)cccc4[C@@](C)(O)[C@H]3C[C@@H]12 [tetracycline] | 1 | – | 4 | – | 1 | – | 1 | – | 1 | – | 1 | – | 1 | – | 0.195 | 0.195 | 0.195 | 0.195 | 0.195 | 0.195 | – |
| N#CC(=NNc1ccc(F)c(Cl)c1)C(=O)c1ccc(Cl)cc1 [compound 15] | 1 | 320 | 1 | 320 | 1 | 320 | 1 | 320 | 1 | 320 | 1 | 320 | 1 | 320 | – | – | – | – | – | – | – |
| O=C(N[C@H](CO)[C@H](O)c1ccc([N+](=O)[O-])cc1)C(Cl)Cl [chloramphenicol] | 1 | – | 8 | – | 1 | – | 2 | – | 1 | – | 1 | – | 1 | – | 0.781 | 0.781 | 1.56 | 0.781 | 0.391 | 0.781 | MIC (EKO-35 araC::acrB): 6.25 µg/mL |
| N#CC(=NNc1cccc(C(F)(F)F)c1)C(=O)c1ccsc1 [compound 3] | 1 | 320 | 1 | 320 | 1 | 320 | 1 | 320 | 1 | 320 | 1 | 320 | 1 | 320 | – | – | – | – | – | – | – |
| COc1ccc(C[C@H](N)C(=O)N[C@H]2[C@@H](O)[C@H](n3cnc4c(N(C)C)ncnc43)O[C@@H]2CO)cc1 [puromycin] | 1 | – | 64 | – | 4 | – | 1 | – | 1 | – | 1 | – | 1 | – | 1.56 | 6.25 | 1.56 | 1.56 | 1.56 | 1.56 | MIC (EKO-35 araC::acrB): 100 µg/mL |
| O=C(Nc1cccc(Oc2c(F)c(F)c(F)c(F)c2F)c1)c1ccccc1 [compound 1] | 1 | 320 | 1 | 320 | 1 | 320 | 1 | 320 | 1 | 320 | 1 | 320 | 1 | 320 | – | – | – | – | – | – | – |
| [H]/N=C(/N)N[C@H]1[C@H](O)[C@@H](O)[C@H](O[C@@H]2O[C@@H](C)[C@](O)(C=O)[C@H]2O[C@@H]2O[C@@H](CO)[C@H](O)[C@@H](O)[C@@H]2NC)[C@@H](N/C(N)=N\[H])[C@@H]1O [Streptomycin] | 1 | – | 2 | – | 1 | – | 2 | – | 2 | – | 1 | – | 1 | – | 3.12 | 3.12 | 6.25 | 6.25 | 3.12 | 3.12 | MIC (EKO-35 araC::acrB): 6.25 µg/mL |
| CCCCCCCCCCCCOS(=O)(=O)[O-].[Na+] [SDS, sodium dodecyl sulphate] | 4 | – | 32 | – | 32 | – | 32 | – | 32 | – | 2 | – | 1 | – | 125 | 1000 | – | – | 62.5 | 31.2 | efflux pump-mediated resistance vs EKO-35 (EKO-35 araC::acrD; AcrD): confirmed |
| N#CC(C#N)=NNc1ccc(-n2ccc(C(F)(F)F)n2)cc1 [compound 8] | 1 | 320 | – | 640 | 1 | 320 | 1 | 160 | 1 | 320 | 1 | 320 | 1 | 320 | – | – | – | – | – | – | – |
